Reference: patent US9499550B2 (BRISTOL-MYERS SQUIBB COMPANY, priority 2012, dated 2016)

Legend:
[1] = test system: HCV genotype 1b (Con1) replicon in HUH-7 cells; assay: HCV replicon luciferase reporter assay, genotype 1b; format: cell-based; conditions: Hepatitis C virus, Huh-7, 72 h, HCV genotype 1b replicon luciferase, 3 days incubation, read-out: LE_1b (EC50, range)
Method in brief: (§1)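 Replicon inhibition for both genotypes was measured as Renilla luciferase signal (EnduRen, 7.5 μM final, 2 h) after 3-day, 37° C exposure of replicon-bearing HUH-7 cells in 4% FCS DMEM, 0.5% DMSO. The 1b construct carries S1179I; the 1a H77 construct carries P1496L and S2204I. Twenty-point, 3-fold dilutions were fitted four-parametrically for EC50, and CC50 was taken from multiplexed Cell Titer-Blue.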

[2] = test system: HCV genotype 1a (H77 strain) replicon in HUH-7 cells; assay: HCV replicon luciferase reporter assay, genotype 1a; format: cell-based; conditions: Hepatitis C virus, Huh-7, 72 h, HCV genotype 1a replicon luciferase, 3 days incubation, read-out: LE_1a (EC50, range)
Method in brief: as §1

Structure (SMILES) | EC50 [1] | EC50 [2]
CC[C@@H]1C[C@H](C)CC/C=C\[C@@H]2C[C@@]2(C(=O)NS(=O)(=O)C2CC2)NC(=O)[C@@H]2C[C@@H](Oc3ncc(OC)c4ccc(F)cc34)CN2C(=O)[C@H]1NC(=O)OC(C)(C)C(C)(F)F [Compound 5469, 3,3-difluoro-2-methylbutan-2-yl((2R,6S,7R,9R,13aS,14aR,16aS,Z)-14a-((cyclopropylsulfonyl)carbamoyl)-7-ethyl-2-((7-fluoro-4-methoxyisoquinolin-1-yl)oxy)-9-methyl-5,16-dioxo-1,2,3,5,6,7,8,9,10,11,13a,14,14a,15,16,16a-hexadecahydrocyclopropa[e]pyrrolo[1,2-a][1,4]diazacyclopentadecin-6-yl)carbamate] | 0.1 to 0.5 nM | 1.01 to 5 nM
[2H]C([2H])([2H])C(OC(=O)N[C@@H]1C(=O)N2C[C@H](Oc3nccc4cc(OC)c(F)cc34)C[C@H]2C(=O)N[C@]2(C(=O)NS(=O)(=O)C3CC3)C[C@H]2/C=C\CC[C@@H](C)C[C@H]1CC)(C([2H])([2H])[2H])C(F)(F)F [Compound 5471] | 0.1 to 0.5 nM | 1.01 to 5 nM
CC[C@@H]1C[C@@H](C)CC/C=C\[C@@H]2C[C@@]2(C(=O)NS(=O)(=O)C2CC2)NC(=O)[C@@H]2C[C@@H](Oc3nccc4cc(OC)c(F)cc34)CN2C(=O)[C@H]1NC(=O)OC(C)(C)C(C)(F)F [Compound 5472, 3,3-difluoro-2-methylbutan-2-yl((2R,6S,7R,9S,13aS,14aR,16aS,Z)-14a-((cyclopropylsulfonyl)carbamoyl)-7-ethyl-2-((7-fluoro-6-methoxyisoquinolin-1-yl)oxy)-9-methyl-5,16-dioxo-1,2,3,5,6,7,8,9,10,11,13a,14,14a,15,16,16a-hexadecahydrocyclopropa[e]pyrrolo[1,2-a][1,4]diazacyclopentadecin-6-yl)carbamate] | 1.01 to 5 nM | 1.01 to 5 nM
CC[C@@H]1C[C@H](C)CC/C=C\[C@@H]2C[C@@]2(C(=O)NS(=O)(=O)C2CC2)NC(=O)[C@@H]2C[C@@H](Oc3nccc4cc(OC)c(F)cc34)CN2C(=O)[C@H]1NC(=O)OC(C)(C)C(C)(F)F [Compound 5473, 3,3-difluoro-2-methylbutan-2-yl((2R,6S,7R,9R,13aS,14aR,16aS,Z)-14a-((cyclopropylsulfonyl)carbamoyl)-7-ethyl-2-((7-fluoro-6-methoxyisoquinolin-1-yl)oxy)-9-methyl-5,16-dioxo-1,2,3,5,6,7,8,9,10,11,13a,14,14a,15,16,16a-hexadecahydrocyclopropa[e]pyrrolo[1,2-a][1,4]diazacyclopentadecin-6-yl)carbamate] | 0.1 to 0.5 nM | 1.01 to 5 nM
COc1ccc2c(O[C@@H]3C[C@H]4C(=O)N[C@]5(C(=O)NS(=O)(=O)C6CC6)C[C@H]5/C=C\CC[C@H](C)C[C@@H](C)[C@H](NC(=O)OC(C)(C)C(C)(F)F)C(=O)N4C3)nc(-c3ccc(OC(C)C)cn3)cc2c1 [Compound 5474, 3,3-difluoro-2-methylbutan-2-yl((2R,6S,7R,9S,13aS,14aR,16aS,Z)-14a-((cyclopropylsulfonyl)carbamoyl)-2-((3-(5-isopropoxypyridin-2-yl)-6-methoxyisoquinolin-1-yl)oxy)-7,9-dimethyl-5,16-dioxo-1,2,3,5,6,7,8,9,10,11,13a,14,14a,15,16,16a-hexadecahydrocyclopropa[e]pyrrolo[1,2-a][1,4]diazacyclopentadecin-6-yl)carbamate] | 1.01 to 5 nM | 1.01 to 5 nM
COc1ccc2c(O[C@@H]3C[C@H]4C(=O)N[C@]5(C(=O)NS(=O)(=O)C6CC6)C[C@H]5/C=C\CC[C@@H](C)C[C@@H](C)[C@H](NC(=O)OC(C)(C)C(C)(F)F)C(=O)N4C3)nc(-c3ccc(OC(C)C)cn3)cc2c1 [Compound 5475, 3,3-difluoro-2-methylbutan-2-yl((2R,6S,7R,9R,13aS,14aR,16aS,Z)-14a-((cyclopropylsulfonyl)carbamoyl)-2-((3-(5-isopropoxypyridin-2-yl)-6-methoxyisoquinolin-1-yl)oxy)-7,9-dimethyl-5,16-dioxo-1,2,3,5,6,7,8,9,10,11,13a,14,14a,15,16,16a-hexadecahydrocyclopropa[e]pyrrolo[1,2-a][1,4]diazacyclopentadecin-6-yl)carbamate] | 0.51 to 1 nM | 0.51 to 1 nM
COc1ccc2c(O[C@@H]3C[C@H]4C(=O)N[C@]5(C(=O)NS(=O)(=O)C6(C)CC6)C[C@H]5/C=C\CC[C@H](C)C[C@@H](C)[C@H](NC(=O)OC(C)(C)C(C)(F)F)C(=O)N4C3)nc(-c3ccc(OC(C)C)cn3)cc2c1 [Compound 5476, 3,3-difluoro-2-methylbutan-2-yl((2R,6S,7R,9S,13aS,14aR,16aS,Z)-2-((3-(5-isopropoxypyridin-2-yl)-6-methoxyisoquinolin-1-yl)oxy)-7,9-dimethyl-14a-(((1-methylcyclopropyl)sulfonyl)carbamoyl)-5,16-dioxo-1,2,3,5,6,7,8,9,10,11,13a,14,14a,15,16,16a-hexadecahydrocyclopropa[e]pyrrolo[1,2-a][1,4]diazacyclopentadecin-6-yl)carbamate] | 1.01 to 5 nM | 5.01 to 35 nM
COc1ccc2c(O[C@@H]3C[C@H]4C(=O)N[C@]5(C(=O)NS(=O)(=O)C6(C)CC6)C[C@H]5/C=C\CC[C@@H](C)C[C@@H](C)[C@H](NC(=O)OC(C)(C)C(C)(F)F)C(=O)N4C3)nc(-c3ccc(OC(C)C)cn3)cc2c1 [Compound 5477, 3,3-difluoro-2-methylbutan-2-yl((2R,6S,7R,9R,13aS,14aR,16aS,Z)-2-((3-(5-isopropoxypyridin-2-yl)-6-methoxyisoquinolin-1-yl)oxy)-7,9-dimethyl-14a-(((1-methylcyclopropyl)sulfonyl)carbamoyl)-5,16-dioxo-1,2,3,5,6,7,8,9,10,11,13a,14,14a,15,16,16a-hexadecahydrocyclopropa[e]pyrrolo[1,2-a][1,4]diazacyclopentadecin-6-yl)carbamate] | 1.01 to 5 nM | 1.01 to 5 nM
CC[C@@H]1C[C@H](C)CC/C=C\[C@@H]2C[C@@]2(C(=O)NS(=O)(=O)C2CC2)NC(=O)[C@@H]2C[C@@H](Oc3nc(-c4ccc(OC(C)C)cn4)cc4cc(OC)ccc34)CN2C(=O)[C@H]1NC(=O)OC(C)(C)C [Compound 5479, tert-butyl ((2R,6S,7R,9R,13aS,14aR,16aS,Z)-14a-((cyclopropylsulfonyl)carbamoyl)-7-ethyl-2-((3-(5-isopropoxypyridin-2-yl)-6-methoxyisoquinolin-1-yl)oxy)-9-methyl-5,16-dioxo-1,2,3,5,6,7,8,9,10,11,13a,14,14a,15,16,16a-hexadecahydrocyclopropa[e]pyrrolo[1,2-a][1,4]diazacyclopentadecin-6-yl)carbamate] | 0.51 to 1 nM | 1.01 to 5 nM
CC[C@@H]1C[C@H](C)CC/C=C\[C@@H]2C[C@@]2(C(=O)NS(=O)(=O)C2(C)CC2)NC(=O)[C@@H]2C[C@@H](Oc3nc(-c4ccc(OC(C)C)cn4)cc4cc(OC)ccc34)CN2C(=O)[C@H]1NC(=O)OC(C)(C)C [Compound 5481, tert-butyl ((2R,6S,7R,9R,13aS,14aR,16aS,Z)-7-ethyl-2-((3-(5-isopropoxypyridin-2-yl)-6-methoxyisoquinolin-1-yl)oxy)-9-methyl-14a-(((1-methylcyclopropyl)sulfonyl)carbamoyl)-5,16-dioxo-1,2,3,5,6,7,8,9,10,11,13a,14,14a,15,16,16a-hexadecahydrocyclopropa[e]pyrrolo[1,2-a][1,4]diazacyclopentadecin-6-yl)carbamate] | 1.01 to 5 nM | 1.01 to 5 nM
CC[C@@H]1C[C@H](C)CC/C=C\[C@@H]2C[C@@]2(C(=O)NS(=O)(=O)C2CC2)NC(=O)[C@@H]2C[C@@H](Oc3nc(-c4ccc(OC(C)C)cn4)cc4cc(OC)ccc34)CN2C(=O)[C@H]1NC(=O)OC(C)(C)C(C)(F)F [Compound 5483, 3,3-difluoro-2-methylbutan-2-yl((2R,6S,7R,9R,13aS,14aR,16aS,Z)-14a-((cyclopropylsulfonyl)carbamoyl)-7-ethyl-2-((3-(5-isopropoxypyridin-2-yl)-6-methoxyisoquinolin-1-yl)oxy)-9-methyl-5,16-dioxo-1,2,3,5,6,7,8,9,10,11,13a,14,14a,15,16,16a-hexadecahydrocyclopropa[e]pyrrolo[1,2-a][1,4]diazacyclopentadecin-6-yl)carbamate] | 1.01 to 5 nM | 1.01 to 5 nM
CC[C@@H]1C[C@H](C)CC/C=C\[C@@H]2C[C@@]2(C(=O)NS(=O)(=O)C2CC2)NC(=O)[C@@H]2C[C@@H](Oc3nc(-c4ccc(OC(C)C)cn4)cc4cc(OC)ccc34)CN2C(=O)[C@H]1NC(=O)OC(C)(C)C(F)(F)F [Compound 5485, 1,1,1-trifluoro-2-methylpropan-2-yl((2R,6S,7R,9R,13aS,14aR,16aS,Z)-14a-((cyclopropylsulfonyl)carbamoyl)-7-ethyl-2-((3-(5-isopropoxypyridin-2-yl)-6-methoxyisoquinolin-1-yl)oxy)-9-methyl-5,16-dioxo-1,2,3,5,6,7,8,9,10,11,13a,14,14a,15,16,16a-hexadecahydrocyclopropa[e]pyrrolo[1,2-a][1,4]diazacyclopentadecin-6-yl)carbamate] | 1.01 to 5 nM | 1.01 to 5 nM
CC[C@@H]1C[C@H](C)CC/C=C\[C@@H]2C[C@@]2(C(=O)NS(=O)(=O)C2(C)CC2)NC(=O)[C@@H]2C[C@@H](Oc3nc(-c4ccc(OC(C)C)cn4)cc4cc(OC)ccc34)CN2C(=O)[C@H]1NC(=O)OC(C)(C)C(C)(F)F [Compound 5487, 3,3-difluoro-2-methylbutan-2-yl((2R,6S,7R,9R,13aS,14aR,16aS,Z)-7-ethyl-2-((3-(5-isopropoxypyridin-2-yl)-6-methoxyisoquinolin-1-yl)oxy)-9-methyl-14a-(((1-methylcyclopropyl)sulfonyl)carbamoyl)-5,16-dioxo-1,2,3,5,6,7,8,9,10,11,13a,14,14a,15,16,16a-hexadecahydrocyclopropa[e]pyrrolo[1,2-a][1,4]diazacyclopentadecin-6-yl)carbamate] | 1.01 to 5 nM | 1.01 to 5 nM
